Test system: Mouse B16 melanoma cells
Experiment: Visual determination of melanin amount and number of cells in cultured B16 melanoma cells
Type: cell-based
Parameters: key: Good: whiter in comparison with the reference, and determined that the amount of melanin was small; Fair: slightly whiter in comparison with the reference, and determined that the amount of melanin was slightly small; Poor: equally white in comparison with the reference, and determined that the amount of melanin was almost the same
Settings: 3 days incubation
Method: Mouse B16 melanoma cells were used. These were cultured in Eagle's MEM containing 10% FBS and theophylline (0.09 mg/ml) in a CO2 incubator (95% air, 5% carbon dioxide) at 37° C. After 24 hours of culture, the sample solution was added to give a final concentration of 2×10^−3 to 2×10^−5 weight % (as dried extract concentration). After further incubation for 3 days, the amount of melanin was determined visually by the following method.
A diffuser plate was placed on the lid of a well plate, the number of cells and the amount of melanin in the cells were observed by an inverted microscope and compared with a reference sample to which no plant extracts were added. The results are shown in Table I. Further, as a positive control, a similar examination as the above was performed for arbutin, which is already known to have an action suppressing melanin production.
Judgment Criteria • Good: whiter in comparison with the reference, and determined that the amount of melanin was small. • Fair: slightly whiter in comparison with the reference, and determined that the amount of melanin was slightly small. • Poor: equally white in comparison with the reference, and determined that the amount of melanin was almost the same.

OC[C@H]1O[C@@H](Oc2ccc(O)cc2)[C@H](O)[C@@H](O)[C@@H]1O [Arbutin, arbutin]
Visual Evaluation of Melanin Production (sample concentration 0.001 mass %): Fair
Visual Evaluation of Melanin Production (sample concentration 0.002 mass %): Good

Source: US20080131384A1, “External Preparation for Skin Whitening, Whitening Agent, Whitening Method and Method of Production of External Preparation for Skin Whitening” (Shiseido Company, Ltd., priority 2004, published 2008)
